This passage reports IC50 results from US10179782B2, “Substituted sulfonamide compounds” (Genentech, Inc., priority 2016, dated 2019).

Like-named read-outs stand apart in the source and are kept apart here.

By IC50 is commonly meant the midpoint of a concentration-inhibition curve.

This test deals with T1, human TRPA1 (Homo sapiens, UniProt O75762).
T1 construct: expressed in transfected cells; host or cells: CHO cells
Briefly: TRPA1 FLIPR Tetra calcium influx assay in CHO cells (block of cinnamaldehyde-induced calcium influx). Conditions: CHO cells expressing TRPA1, agonist cinnamaldehyde 75 uM, read-out: hTRPA1 CHO Ca2+ AUC EVO (IC50). The format is cell-based. The method in brief: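 IC50s were derived from a Hill fit with n fixed at 1.5, using inhibition of FLIPR Tetra calcium signals in dye-loaded TRPA1-CHO cells. Cells sat with compound 20 min at room temperature in HBSS with 20 mM HEPES (pH 7.4) and 0.02% BSA, then were challenged with cinnamaldehyde near EC80: 75 µM human, 45 µM rat.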

Setting [1] is: Table 2, 20 min compound incubation, Hill coefficient fixed to 1.5.

T1 sequence (O75762 whole entry): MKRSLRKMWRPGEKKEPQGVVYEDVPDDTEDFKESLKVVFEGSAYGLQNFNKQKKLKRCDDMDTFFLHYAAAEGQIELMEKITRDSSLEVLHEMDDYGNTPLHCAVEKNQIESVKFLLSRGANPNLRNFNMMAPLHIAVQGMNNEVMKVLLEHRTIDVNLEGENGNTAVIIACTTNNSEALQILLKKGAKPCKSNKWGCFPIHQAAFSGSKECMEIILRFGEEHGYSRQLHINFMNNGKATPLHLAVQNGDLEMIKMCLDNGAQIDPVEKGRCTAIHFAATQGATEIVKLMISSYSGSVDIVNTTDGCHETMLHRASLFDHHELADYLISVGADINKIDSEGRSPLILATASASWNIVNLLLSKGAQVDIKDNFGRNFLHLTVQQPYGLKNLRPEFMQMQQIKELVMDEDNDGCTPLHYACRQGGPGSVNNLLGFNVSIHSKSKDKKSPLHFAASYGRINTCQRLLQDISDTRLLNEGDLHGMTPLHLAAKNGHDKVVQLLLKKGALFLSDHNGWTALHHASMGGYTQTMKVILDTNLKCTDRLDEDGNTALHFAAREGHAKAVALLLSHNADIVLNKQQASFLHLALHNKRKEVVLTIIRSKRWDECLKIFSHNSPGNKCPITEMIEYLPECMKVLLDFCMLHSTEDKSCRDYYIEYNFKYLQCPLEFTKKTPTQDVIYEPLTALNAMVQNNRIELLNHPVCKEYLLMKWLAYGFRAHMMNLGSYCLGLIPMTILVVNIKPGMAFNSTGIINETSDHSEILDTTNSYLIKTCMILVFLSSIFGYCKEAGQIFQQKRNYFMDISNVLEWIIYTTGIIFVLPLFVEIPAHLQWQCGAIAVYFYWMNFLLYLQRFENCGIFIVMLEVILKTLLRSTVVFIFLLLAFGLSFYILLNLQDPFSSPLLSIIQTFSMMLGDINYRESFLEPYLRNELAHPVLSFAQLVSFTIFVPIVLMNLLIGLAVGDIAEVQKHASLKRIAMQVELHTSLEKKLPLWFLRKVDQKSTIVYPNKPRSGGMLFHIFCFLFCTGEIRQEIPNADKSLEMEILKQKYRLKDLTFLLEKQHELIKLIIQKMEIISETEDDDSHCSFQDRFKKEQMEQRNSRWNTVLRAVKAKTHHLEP

With `O=C(NCc1cc(-c2cnc(C(F)(F)F)nc2)ncn1)[C@@H]1C[C@@H](F)CN1S(=O)(=O)c1ccc(F)cc1` [(2S,4R)-4-fluoro-1-(4-fluorophenyl)sulfonyl-N-[[6-[2-(trifluoromethyl)pyrimidin-5-yl]pyrimidin-4-yl]methyl]pyrrolidine-2-carboxamide, reference compound], the IC50 (Table 1, with vs without substituent at R2/R3) amounted to 251 nM.

Regarding `C[C@H]1[C@H](F)C[C@@H](C(=O)NCc2cc(-c3cnc(C(F)(F)F)s3)c(F)cn2)N1S(=O)(=O)c1ccc(F)cc1` [Example 85, (2S,4R,5S)-4-fluoro-1-(4-fluorophenyl)sulfonyl-N-[[5-fluoro-4-[2-(trifluoromethyl)thiazol-5-yl]-2-pyridyl]methyl]-5-methyl-pyrrolidine-2-carboxamide], the IC50 under setting [1] is 33.7 nM.

In the case of `COc1nc(CNC(=O)[C@@H]2C[C@@H](F)[C@H](C)N2S(=O)(=O)c2ccc(F)cc2)cc(-c2cnc(C(F)(F)F)nc2)n1` [Example 126, (2S,4R,5S)-4-fluoro-1-(4-fluorophenyl)sulfonyl-N-[[2-methoxy-6-[2-(trifluoromethyl)pyrimidin-5-yl]pyrimidin-4-yl]methyl]-5-methyl-pyrrolidine-2-carboxamide], under setting [1], the IC50 was determined as 12.8 nM.

Consider `O=C(NCc1cc(-c2cnc(C(F)(F)F)nc2)ncc1F)[C@@H]1C[C@@H]2C[C@@H]2N1S(=O)(=O)c1ccc(F)cc1` [Example 15, (1S,3S,5S)-2-(4-fluorophenyl)sulfonyl-N-[[5-fluoro-2-[2-(trifluoromethyl)pyrimidin-5-yl]-4-pyridyl]methyl]-2-azabicyclo[3.1.0]hexane-3-carboxamide], for which the concentration for half-maximal inhibition (IC50) under setting [1] turned out to be 0.6 nM.

`C[C@H]1[C@H](F)C[C@@H](C(=O)NCc2cc(-c3ccc(C(F)(F)F)nc3)ncc2F)N1S(=O)(=O)c1ccc(F)cc1` [Example 26, (2S,4R,5S)-4-fluoro-N-((5-fluoro-6′-(trifluoromethyl)-2,3′-bipyridin-4-yl)methyl)-1-(4-fluorophenylsulfonyl)-5-methylpyrrolidine-2-carboxamide]: the IC50 under setting [1] is 41.2 nM.

As to `C[C@H]1[C@H](F)C[C@@H](C(=O)NCc2cc(-c3cnc(C(F)(F)F)nc3)ncc2F)N1S(=O)(=O)c1cc2cc(F)ccc2s1` [Example 99, (2S,4R,5S)-4-fluoro-1-(5-fluorobenzothiophen-2-yl)sulfonyl-N-[[5-fluoro-2-[2-(trifluoromethyl)pyrimidin-5-yl]-4-pyridyl]methyl]-5-methyl-pyrrolidine-2-carboxamide], the concentration for half-maximal inhibition (IC50) under setting [1] was found to be 9.67 nM.

Take `O=C(NCc1cc(-c2cnc(C(F)(F)F)nc2)ncc1Cl)[C@@H]1[C@H]2C[C@H]2CN1S(=O)(=O)c1ccc(F)cc1` [Example 63, (1S,2S,5R)-N-[[5-chloro-2-[2-(trifluoromethyl)pyrimidin-5-yl]-4-pyridyl]methyl]-3-(4-fluorophenyl)sulfonyl-3-azabicyclo[3.1.0]hexane-2-carboxamide]: the IC50 under setting [1] is 6.16 nM.

As to `C[C@H]1[C@H](F)C[C@@H](C(=O)NCc2cc(-c3cnc(C(F)(F)F)c(F)c3)c(F)cn2)N1S(=O)(=O)c1ccc(F)cc1` [Example 144, (2S,4R,5S)-4-fluoro-N-[[5-fluoro-4-[5-fluoro-6-(trifluoromethyl)-3-pyridyl]-2-pyridyl]methyl]-1-(4-fluorophenyl)sulfonyl-5-methyl-pyrrolidine-2-carboxamide], the concentration for half-maximal inhibition (IC50) under setting [1] was determined as 17 nM.

For `O=C(NCc1cc(-c2cnc(C(F)(F)F)nc2)cc(F)c1F)[C@@H]1C[C@@H](F)CN1S(=O)(=O)c1ccc(F)cc1` [Example 76, (2S,4R)-N-[[2,3-difluoro-5-[2-(trifluoromethyl)pyrimidin-5-yl]phenyl]methyl]-4-fluoro-1-(4-fluorophenyl)sulfonyl-pyrrolidine-2-carboxamide], under setting [1], the half-maximal inhibitory concentration (IC50) is 39.3 nM.

`O=C(NCc1cc(-c2cnc(C(F)(F)F)nc2)ccc1F)[C@@H]1C[C@@H]2C[C@@H]2N1S(=O)(=O)c1ccc(F)cc1` [Example 16, (1S,3S,5S)-2-(4-fluorophenyl)sulfonyl-N-[[2-fluoro-5-[2-(trifluoromethyl)pyrimidin-5-yl]phenyl]methyl]-2-azabicyclo[3.1.0]hexane-3-carboxamide]: the IC50 under setting [1] is 2.12 nM.

Consider `C[C@H]1[C@H](F)C[C@@H](C(=O)NCc2cc(-c3cnc(C(F)(F)F)nc3)c(F)cn2)N1S(=O)(=O)c1ccc(F)cc1` [Example 34, (2S,4R,5S)-4-fluoro-N-([5-fluoro-4-[2-(trifluoromethyl)pyrimidin-5-yl]pyridin-2-yl]methyl)-1-[(4-fluorobenzene)sulfonyl]-5-methylpyrrolidine-2-carboxamide], for which the IC50 under setting [1] was 38.8 nM.

As to `C[C@H]1[C@H](F)C[C@@H](C(=O)NCc2cc(-c3cnc(C(F)(F)F)nc3)c(OC(F)F)cn2)N1S(=O)(=O)c1ccc(F)cc1` [Example 146, (2S,4R,5S)-N-[[5-(difluoromethoxy)-4-[2-(trifluoromethyl)pyrimidin-5-yl]-2-pyridyl]methyl]-4-fluoro-1-(4-fluorophenyl)sulfonyl-5-methyl-pyrrolidine-2-carboxamide], under setting [1], the IC50 was determined as 35 nM.

Consider `C[C@H]1[C@H](F)C[C@@H](C(=O)NCc2ccc(F)c(-c3cnc(C(F)(F)F)nc3)c2)N1S(=O)(=O)c1ccc(F)cc1` [Example 43, (2S,4R,5S)-4-fluoro-N-(4-fluoro-3-(2-(trifluoromethyl)pyrimidin-5-yl)benzyl)-1-(4-fluorophenylsulfonyl)-5-methylpyrrolidine-2-carboxamide], for which the IC50 under setting [1] was found to be 9.39 nM.

As for `C[C@H]1[C@H](F)C[C@@H](C(=O)NCc2cc([C@H]3CC[C@H](C(F)(F)F)CC3)c(F)cn2)N1S(=O)(=O)c1ccc(F)cc1` [Example 53, (2S,4R,5S)-4-fluoro-1-(4-fluorophenyl)sulfonyl-N-[[5-fluoro-4-[4-(trifluoromethyl)cyclohexyl]-2-pyridyl]methyl]-5-methyl-pyrrolidine-2-carboxamide], under setting [1], the IC50 stood at 64.6 nM.

With `CC(C)Oc1nc(CNC(=O)[C@@H]2C[C@@H](F)CN2S(=O)(=O)c2ccc(F)cc2)cc(-c2cnc(C(F)(F)F)nc2)n1` [Example 60, (2S,4R)-4-fluoro-1-(4-fluorophenyl)sulfonyl-N-[[2-isopropoxy-6-[2-(trifluoromethyl)pyrimidin-5-yl]pyrimidin-4-yl]methyl]pyrrolidine-2-carboxamide], the IC50 under setting [1] stood at 83.1 nM.

`C[C@H]1[C@H](F)C[C@@H](C(=O)N(COP(=O)(O)O)Cc2cc(-c3cnc(C(F)(F)F)nc3)ncc2F)N1S(=O)(=O)c1ccc(F)cc1` [Example 157, Sodium ((2S,4R,5S)-4-fluoro-N-((5-fluoro-2-(2-(trifluoromethyl)pyrimidin-5-yl)pyridin-4-yl)methyl)-1-((4-fluorophenyl)sulfonyl)-5-methylpyrrolidine-2-carboxamido)methyl phosphate]: the IC50 under setting [1] turned out to be 1200 nM.

On to `C[C@@]1(F)C[C@@H](C(=O)NCc2cc(-c3cnc(C(F)(F)F)nc3)ncc2C(F)(F)F)N(S(=O)(=O)c2ccc(F)cc2)C1` [Example 155, (2S,4R)-4-fluoro-1-(4-fluorophenyl)sulfonyl-4-methyl-N-[[5-(trifluoromethyl)-2-[2-(trifluoromethyl)pyrimidin-5-yl]-4-pyridyl]methyl]pyrrolidine-2-carboxamide], for which the IC50 under setting [1] was 4.24 nM.

Turning to `C[C@@]1(F)C[C@@H](C(=O)NCc2cc(-c3cnc(C(F)(F)F)nc3)ncc2C(F)(F)F)N(S(=O)(=O)c2cc3cc(F)ccc3o2)C1` [Example 156, (2S,4R)-4-fluoro-1-(5-fluorobenzofuran-2-yl)sulfonyl-4-methyl-N-[[5-(trifluoromethyl)-2-[2-(trifluoromethyl)pyrimidin-5-yl]-4-pyridyl]methyl]pyrrolidine-2-carboxamide], the IC50 under setting [1] came out at 1.93 nM.

`C[C@H]1[C@H](F)C[C@@H](C(=O)NCc2cc(-c3cnc(C(F)(F)F)nc3)c(C(F)F)cn2)N1S(=O)(=O)c1ccc(F)cc1` [Example 133, (2S,4R,5S)-N-[[5-(difluoromethyl)-4-[2-(trifluoromethyl)pyrimidin-5-yl]-2-pyridyl]methyl]-4-fluoro-1-(4-fluorophenyl)sulfonyl-5-methyl-pyrrolidine-2-carboxamide]: under setting [1], the concentration for half-maximal inhibition (IC50) turned out to be 30.5 nM.

Regarding `CC1(C)[C@@H]2[C@@H](C(=O)NCc3ccc(F)c(-c4cnc(C(F)(F)F)nc4)c3)N(S(=O)(=O)c3ccc(F)cc3)C[C@@H]21` [Example 78, (1S,4S,5R)-3-(4-fluorophenyl)sulfonyl-N-[[4-fluoro-3-[2-(trifluoromethyl)pyrimidin-5-yl]phenyl]methyl]-6,6-dimethyl-3-azabicyclo[3.1.0]hexane-4-carboxamide], the IC50 under setting [1] is 23.4 nM.

Consider `C[C@H]1[C@H](F)C[C@@H](C(=O)NCc2cn(-c3cnc(C(F)(F)F)nc3)nc2C(F)F)N1S(=O)(=O)c1ccc(F)cc1` [Example 7, (2S,4R,5S)-N-[[3-(difluoromethyl)-1-[2-(trifluoromethyl)pyrimidin-5-yl]pyrazol-4-yl]methyl]-4-fluoro-1-(4-fluorophenyl)sulfonyl-5-methyl-pyrrolidine-2-carboxamide], for which the IC50 under setting [1] is 26.2 nM.

In the case of `O=C(NCc1cc(-c2cnc(C(F)(F)F)nc2)c(F)cc1F)[C@@H]1C[C@@H](F)CN1S(=O)(=O)c1ccc(F)cc1` [Example 74, (2S,4R)-N-[[2,4-difluoro-5-[2-(trifluoromethyl)pyrimidin-5-yl]phenyl]methyl]-4-fluoro-1-(4-fluorophenyl)sulfonyl-pyrrolidine-2-carboxamide], the IC50 under setting [1] was 65.1 nM.

As for `C[C@H]1[C@H](F)C[C@@H](C(=O)NCc2cc(Cl)nc(-c3cnc(C(F)(F)F)nc3)c2)N1S(=O)(=O)c1ccc(F)cc1` [Example 10, (2S,4R,5S)-N-[[2-chloro-6-[2-(trifluoromethyl)pyrimidin-5-yl]-4-pyridyl]methyl]-4-fluoro-1-(4-fluorophenyl)sulfonyl-5-methyl-pyrrolidine-2-carboxamide], under setting [1], the IC50 was determined as 2.26 nM.
